In PubChem BioAssay (NCI) one finds GI50 and TGI data, which are given here for 15 compounds.

Among the test systems are MCF7 breast; T-47D breast; PC-3 prostate; MDA-MB-231 breast; BT-549 breast; RXF-631 renal; KM20L2 colon; HOP-18 NSCLC; MDA-N.
Common to all, as to test: DTP human tumour cell line panel, 48 h

In general, GI50 refers to the concentration that inhibits growth by half. Usually TGI stands for the concentration at which net growth stops. A high value points to less potent growth arrest.

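These data come from cells grown in 96-well plates and exposed to compound for 48 hours at five concentrations. Abbreviation: GI50, concentration required for 50% inhibition of growth. Definition used: TGI = concentration required for complete inhibition of growth.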

As to `O=C(c1ccccc1)c1cc2ccccc2o1`, the GI50 in the assay on MCF7 breast is greater than 100 µM; in the assay with T-47D breast, 83.3 µM; in the assay with PC-3 prostate, 85.2 µM; with MDA-MB-231 breast, 91.9 µM; with BT-549 breast, 73 µM. Moreover, the TGI in the assay with MCF7 breast, in the assay with T-47D breast, in the assay with PC-3 prostate, in the assay with MDA-MB-231 breast and in the assay with BT-549 breast was greater than 100 µM each time.
Take `CC(C)Oc1ccc2cc(-c3nn(CC4CCNCC4)c4ncnc(N)c34)ccc2c1`: the GI50 was 5.59 µM with MCF7 breast; 9.81 µM in the assay on T-47D breast; 12 µM in the assay with PC-3 prostate; 3.05 µM in the assay with MDA-MB-231 breast; 9.6 µM in the assay on BT-549 breast. Moreover, the TGI in the assay on MCF7 breast worked out at 20.1 µM; in the assay on T-47D breast, 24.9 µM; in the assay with PC-3 prostate, 25.8 µM; in the assay on MDA-MB-231 breast, 9.94 µM; in the assay on BT-549 breast, 22 µM.
As for `CCCc1nc(NC#N)nc(C(=O)Nc2ccccc2)c1CC`, the concentration for total growth inhibition (TGI) with RXF-631 renal, in the assay on KM20L2 colon and in the assay with HOP-18 NSCLC was greater than 100 µM throughout.
Turning to `Cc1cc(N(CCC#N)CCC#N)ccc1N=Nc1ccc(C(=O)O)cc1`, the TGI in the assay on HOP-18 NSCLC was greater than 100 µM.
With `COc1ccc2[nH]cc(C3(c4c[nH]c5ccc(OC)cc45)C(=O)Nc4ccc(F)cc43)c2c1`, the GI50 in the assay on MCF7 breast was 2.72 µM; with T-47D breast it was 3.04 µM; with PC-3 prostate, 3.13 µM; in the assay on MDA-MB-231 breast it was 1.57 µM; in the assay with BT-549 breast it was 3.21 µM. In addition, the TGI with MCF7 breast is 10.1 µM; in the assay on T-47D breast, 14.9 µM; with PC-3 prostate, 16.5 µM; with MDA-MB-231 breast, 3.56 µM; in the assay on BT-549 breast, 11.7 µM.
`O=C1/C(=C/c2ccc3c(c2)OCO3)SC2C=Nc3ccccc3N12` (stereo unspecified): the TGI in the assay with RXF-631 renal, in the assay on KM20L2 colon and in the assay on HOP-18 NSCLC was greater than 100 µM throughout.
Regarding `NC(=O)C12CC3CC(CC(F)(C3)C1)C2`, the TGI in the assay on KM20L2 colon is greater than 100 µM.
As for `O=C(O)Cc1cc(Cl)ccc1O`, the TGI in the assay with MCF7 breast, in the assay on T-47D breast, in the assay on MDA-N, with PC-3 prostate, in the assay with MDA-MB-231 breast and in the assay on BT-549 breast was greater than 100 µM throughout.
With `Nc1nc(/C=C\c2ccc([N+](=O)[O-])s2)nc(N2CCCC2)n1`, the GI50 in the assay on MCF7 breast was 3.16 µM; in the assay on T-47D breast it was 1.68 µM; with PC-3 prostate, 3.92 µM; with MDA-MB-231 breast it was 1.56 µM; with BT-549 breast, 7.17 µM. Moreover, the total growth inhibition concentration (TGI) in the assay on MCF7 breast was 16.1 µM; with T-47D breast, 14.1 µM; with PC-3 prostate it was 21.9 µM; in the assay with MDA-MB-231 breast, 9.35 µM; in the assay on BT-549 breast it was 20.9 µM.
Take `O=C1Nc2ccccc2/C1=N\[O-].O=C1Nc2ccccc2/C1=N\[O-].[Cu+2]`: the GI50 with MCF7 breast, in the assay on T-47D breast, with MDA-N, with PC-3 prostate, in the assay with MDA-MB-231 breast and in the assay with BT-549 breast was greater than 100 µM each time. In addition, the total growth inhibition concentration (TGI) with MCF7 breast, in the assay on T-47D breast, in the assay with MDA-N, with PC-3 prostate, in the assay on MDA-MB-231 breast and in the assay with BT-549 breast was greater than 100 µM throughout.
Consider `O=C1OCC2=C1C(c1cccc(Br)c1)c1cc3c(cc1N2CCO)CCC3` (stereo unspecified), for which the GI50 in the assay on MCF7 breast is 0.0257 µM; in the assay on T-47D breast, 2.37 µM; in the assay with PC-3 prostate, 0.0864 µM; in the assay on MDA-MB-231 breast, 0.191 µM; in the assay on BT-549 breast, 0.209 µM. Further, the TGI in the assay on MCF7 breast is 9.66 µM; in the assay with T-47D breast, 17.9 µM; in the assay on PC-3 prostate it was 7.1 µM; with MDA-MB-231 breast, 1.22 µM; in the assay with BT-549 breast it was 6.5 µM.
Regarding `CCOC(=O)C(Cc1ccc(CCCC(=O)NCCC(=O)Nc2ccc3nc(C)sc3c2)cc1)C(=O)OCC`, the GI50 was 22.2 µM in the assay on MCF7 breast; 19.7 µM with T-47D breast; 24.3 µM with PC-3 prostate; 52.5 µM with MDA-MB-231 breast; 23.7 µM in the assay on BT-549 breast. For the same compound, the total growth inhibition concentration (TGI) was 64.3 µM in the assay on MCF7 breast; 74.1 µM in the assay on T-47D breast; greater than 70.7 µM in the assay with PC-3 prostate; greater than 100 µM in the assay on MDA-MB-231 breast; 72.8 µM in the assay with BT-549 breast.
Take `CCn1c2ccccc2c2cc(NC(=O)Nc3ccc([N+](=O)[O-])cc3C)ccc21`: the GI50 in the assay with MCF7 breast was 3.7 µM; in the assay with T-47D breast, 2.34 µM; in the assay on PC-3 prostate, 2.73 µM; with MDA-MB-231 breast, 3.66 µM; in the assay with BT-549 breast it was 2.02 µM. The TGI is greater than 100 µM in the assay with MCF7 breast; 9.54 µM in the assay with T-47D breast; 10.8 µM in the assay with PC-3 prostate; 24.6 µM in the assay with MDA-MB-231 breast; 6.46 µM with BT-549 breast.
For the compound `CC[C@H]1[C@@H]2C=C[C@@H]3[C@H]4C/C=C\C(=O)NCCC[C@@H]5NC(=O)/C(=C(O)/C=C/[C@@H]4C[C@@H]3[C@H]2C[C@H]1C)C5=O`, the GI50 was 1.75 µM in the assay on MCF7 breast; 1.7 µM with T-47D breast; 0.865 µM with PC-3 prostate; 1.3 µM in the assay on MDA-MB-231 breast; 1.29 µM with BT-549 breast. The total growth inhibition concentration (TGI) with MCF7 breast worked out at 3.88 µM; in the assay with T-47D breast, 4.1 µM; with PC-3 prostate, 2.3 µM; in the assay with MDA-MB-231 breast, 2.66 µM; in the assay on BT-549 breast, 2.74 µM.
On to `Clc1ccc2[nH]cc(-c3nnnn3-c3ccccc3)c2c1`, for which the GI50 in the assay with MCF7 breast is 29.8 µM; in the assay on T-47D breast, greater than 45.3 µM; in the assay with PC-3 prostate, 18.6 µM; in the assay on MDA-MB-231 breast, 33.8 µM; with BT-549 breast, 22.2 µM. The TGI is greater than 100 µM with MCF7 breast; greater than 100 µM with T-47D breast; greater than 59.5 µM with PC-3 prostate; greater than 100 µM in the assay with MDA-MB-231 breast; 68.9 µM in the assay with BT-549 breast.
